We go through 3 compounds from patent US7713996B2, “Indolyl derivatives which are L-CPT1 inhibitors” (Hoffmann-La Roche Inc., priority 2005, dated 2010).

In this assay the target is T1, L-CPT1 (Homo sapiens, UniProt P50416).
T1 construct: made in house; host or cells: Pichia pastoris strain X-33
T1 sequence (P50416 1-773): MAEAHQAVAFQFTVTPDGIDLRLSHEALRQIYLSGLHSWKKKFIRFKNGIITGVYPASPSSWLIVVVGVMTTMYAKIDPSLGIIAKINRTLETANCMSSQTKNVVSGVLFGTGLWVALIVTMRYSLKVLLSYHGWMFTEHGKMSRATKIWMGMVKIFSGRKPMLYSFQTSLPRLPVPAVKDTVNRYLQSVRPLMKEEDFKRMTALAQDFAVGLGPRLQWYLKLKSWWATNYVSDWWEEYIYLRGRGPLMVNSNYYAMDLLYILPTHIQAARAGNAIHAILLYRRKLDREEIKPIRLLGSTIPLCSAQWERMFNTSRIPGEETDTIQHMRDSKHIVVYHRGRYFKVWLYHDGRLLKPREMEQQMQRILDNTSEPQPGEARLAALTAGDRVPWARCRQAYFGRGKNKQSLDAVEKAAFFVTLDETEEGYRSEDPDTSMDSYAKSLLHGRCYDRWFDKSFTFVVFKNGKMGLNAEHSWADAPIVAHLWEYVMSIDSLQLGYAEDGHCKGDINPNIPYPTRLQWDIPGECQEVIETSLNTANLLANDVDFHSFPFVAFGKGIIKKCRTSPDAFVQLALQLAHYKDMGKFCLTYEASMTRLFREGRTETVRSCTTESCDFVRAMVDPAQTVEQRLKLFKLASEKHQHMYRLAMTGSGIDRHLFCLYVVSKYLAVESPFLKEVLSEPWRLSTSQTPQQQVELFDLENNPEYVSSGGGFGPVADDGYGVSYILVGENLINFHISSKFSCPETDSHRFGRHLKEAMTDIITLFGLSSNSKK
Description: L-CPT1 inhibition, spectrophotometric CPT activity assay with DTNB (Ellman's reagent). The assay is classed as biochemical. As to conditions: human liver CPT1 expressed in P. pastoris, cell extracts; carnitine 500 μM, palmitoyl-CoA 80 μM, DTNB 300 μM, pH 7.4. As to the method: The following tests were carried out in order to determine the activity of the compounds of the present invention. Background information on the performed assays can be found in: Jackson et al., 1999, Biochem. J. 341, 483-489 and Jackson et al., 2000, J. Biol. Chem. 275, 19560-19566.
Human liver and muscle CPT1 cDNAs and rat CPT2 cDNA were subcloned in pGAPZB or pGAPZA, respectively. These plasmids were used to transform P. pastoris strain X-33 via electroporation after the preparation of electrocompetent cells. High copy number clones were selected where necessary using 0.5 or 1 mg/ml Zeocin. Cultures for activity measurements were induced for 16 h in YPD medium (1% yeast extract, 2% peptone, 2% glucose). Crude cell extracts were prepared by disrupting the cells with glass beads or French Press, depending on fermenter sizes. After centrifugation, the cell-free extracts were resuspended in cell breaking buffer (50 mM Tris, pH7.4, 100 mM KCl, 1 mM EDTA) in the presence of a protease inhibitor cocktail, before aliquoting and freezing at −20° C.
CPT activity was measured using a spectrophotometric assay using 5,5′-dithio-bis-(2-nitrobenzoic acid) (DTNB) also called Ellman's reagent. The HS-CoA released on the formation of acylcarnitine from carnitine (500 μM) and palmitoyl-CoA (80 μM) reduced DTNB (300 μM) forming 5-mercapto-(2-nitrobenzoic acid) which absorbed at 410 nm with a molar coefficient extinction of 13600 M^−1·cm^−1. The assay buffer contained 120 mM KCl, 25 mM Tris, pH 7.4, 1 mM EDTA. This assay was used for the identification of selective inhibitors of the liver CPT1 isoform versus the muscle CPT1 and CPT2 isoforms.
In general terms: DTNB colorimetry detects thiols as they appear.
Compound `O=C(Nc1ccc(C(=O)O)c(Cl)c1)c1ccc2c(c1)N(S(=O)(=O)c1cccc(Cl)c1)CC2` [Example 1, 2-Chloro-4-{[1-(3-chloro-benzenesulfonyl)-2,3-dihydro-1H-indole-6-carbonyl]-amino}-benzoic acid] displayed an IC50 of 160 nM.
As for `COc1ccc(Cl)cc1S(=O)(=O)N1CCc2ccc(C(=O)Nc3ccc(C(=O)O)c(F)c3)cc21` [Example 12, 4-{[1-(5-Chloro-2-methoxy-benzenesulfonyl)-2,3-dihydro-1H-indole-6-carbonyl]-amino}-2-fluoro-benzoic acid], the figure is 72.2 nM; as for `COc1ccc(Cl)cc1S(=O)(=O)N1CCc2ccc(C(=O)Nc3ccc(C(=O)O)cc3)cc21` [Example 31, 4-{[1-(5-Chloro-2-methoxy-benzenesulfonyl)-2,3-dihydro-1H-indole-6-carbonyl]-amino}-benzoic acid], 20.6 nM.

By IC50 is commonly meant the concentration that inhibits the measured activity by half.
